Ends that are not written are not given here.
Columns and labels:
E. coli 70S ribosomes = experiment: Kinetic peptidyl transfer (puromycin) assay on E. coli 70S ribosomes; assay type: biochemical; settings: 30 nM 70S, 50 µM puromycin, 37 °C; n = 2; read-out: apparent inhibition constant (Ki) of peptidyl transfer
Procedure: The effects of GRn or PRn on peptide bond formation in E. coli ribosome were tested in an in vitro assay that reacts the 70S ribosome loaded with [^35S]-fMet-tRNA^fMet in the P-site with puromycin, an A-site tRNA mimic, and measures the release of the resulting dipeptide containing formyl-methionine covalently bonded to puromycin, as described. E. coli tRNA^fMet (Chemical Block) was aminoacylated with [^35S]-N-formyl-L-methionine (Perkin Elmer) as described. 70S ribosomes were prepared from E. coli (MRE600) as described. 70S ribosomes were stored in the ribosome-storage buffer (20 mM Tris-HCl, pH 7.0; 100 mM NH4Cl; 20 mM MgCl2) at –80 °C. A model mRNA fragment, containing the Shine-Dalgarno sequence and a spacer to position the AUG codon in the P-site and the UUC codon in the A site (GGCAAGGAGGUAAAAAUGUUC AAAAAA), was synthesized by IDT. 70S•mRNA•fMet-tRNA^fMet complexes with GRn (where n = 4, 10 or 20) or PRn (where n = 4, 10, 20 or 40) were formed as follows. 330 nM 70S ribosomes were incubated with 11 µM mRNA in buffer containing 20 mM Tris-acetate (pH 7.0), 100 mM NH4OAc, 12 mM Mg(OAc)2, for 2 min at 37 °C. 730 nM [^35S]-fMet-tRNA^fMet was added and incubated for 5 min at 37 °C. The solution was diluted 9.6-fold with the same buffer, followed by addition of a GRn or PRn repeat peptide (22x relative to its final concentration). The complex was incubated for 5 min at 37 °C prior to addition of puromycin dissolved in the same buffer (see below).
The kinetics of puromycin reaction on the 70S or 80S ribosomes were recorded and analyzed essentially as described. An aliquot (4.5 μl) of the complex prior to addition of puromycin was quenched in 30 μl of saturated MgSO4 in 0.1 M NaOAc to represent the zero-time point. Five microliters of 500 µM puromycin (in the same buffer as that used for the ribosomal complex) was added to 45 μl of the complex to initiate the reaction, yielding estimated final concentrations: 30 nM for the ribosome, 1 µM mRNA, 66 nM [^35S]-fMet-tRNA^fMet, 50 µM puromycin, and varying concentrations of PRn and GRn peptides, from 30 nM to 2 μM. After 6, 15, 30, 90 s, and 5, 15, 30, 60, and (for slower reactions) 180 min, 5-μl aliquots were quenched in 30 μl of saturated MgSO4 in 0.1 M NaOAc. All quenched samples were extracted with 700 μl ethyl-acetate. 600 μl of the extract were mixed with 3.5 ml of Econo-Safe scintillation cocktail (RPI), and the amount of released [^35S]-labeled dipeptide was measured for each time point using a scintillation counter (Beckman Coulter, Inc.).
All time progress curves were recorded in duplicates, using independently prepared 70S or 80S complexes. Reaction rates were calculated using single-exponential or double-exponential (80S complexes) regressions for different concentrations of PRn and GRn using GraphPad Prism 8. Hyperbola fitting in Gnuplot was used to derive apparent Ki-values.

[1] = test system: ribosomes on endogenous beta-globin mRNA in RRL; experiment: Toeprinting of 80S and 4-5-mer polysome fractions on beta-globin mRNA; assay type: biochemical, rabbit; settings: for Ratio (START to CDS) / Normalized ratio START/ORF: 80S fraction, primer A, Fig. 2f independent repeat; for Normalized ratio START/ORF: no inhibitor = 1; for normalized ratio START to CDS, MEAN: 4-5-mer, primer B, mean of ten 20 bp windows
Procedure: Toeprinting analyses were carried out similarly to those in refs. [51],[74], using 80S and polysome (4–5-some) fractions collected from polysome profiles as described in “Polysome Profiles” except that reactions were doubled in size (200 μL), performed at 37 °C, and were stopped with ice-cold 1xAMV Buffer (50 mM Tris-HCl pH 8.3, 50 mM KCl, 5 mM MgCl2) with 200 μg/ml cycloheximide before being separated on at 10–35% sucrose gradient in 1xAMV buffer with 0.5 mM spermidine and 1 mM DTT. 600 μl of each fraction (80S or 4–5-mer) was supplemented with 10 mM DTT. Then 10 U of AMV reverse transcriptase (Promega), 120 nmol dNTPs, and 120 pmol of a 5'[6-carboxyfluorescein (FAM)]-labeled primer (IDT-DNA) were added. Two primers specific to the endogenous beta-globin mRNA in RRL were used in separate reactions: 5′-(FAM)-GGACTCGAAGAACCTCTG (as in ref. [74]) annealed 136 nucleotides downstream of the AUG or 5′-(FAM)-[…] annealed to the end of the 3'-UTR. Primers were extended at 37 °C for 30 min, and then the reaction were extracted in 1:1 phenol:chloroform, supplemented with 1/10 volume of 3 M sodium acetate pH 5.2, and precipitated with 2.5 volumes of 100% ethanol. Pellets were resuspended in 10 μl of deionized formamide (Applied Biosystems) with 1/20 volume of a 35-500 nucleotide orange-dye labeled DNA size standard (MCLab) and loaded onto a 96-well plate. The samples were sent for fragment analysis by capillary electrophoresis to the UMass Chan Medical School Molecular Biology Core Laboratory using an ABI3730XL DNA Fragment Analyzer with capillaries loaded with POP-7 polymer and with an injection voltage of 12.5 kV. Data collection was performed with GeneMapper software (ABI). Data were exported as.fsa files and were analyzed (aligning to ladder and background correction) in GeneMarker 3.0.1 software (SoftGenetics) running in demo mode. Screen captures of traces were taken and traces were integrated using the “Quantification” feature and manually adjusting sliders to include the desired nucleotide range.

Compound | Ki (E. coli 70S ribosomes) | site of ribosome accumulation, toe-printing of polysome fractions [1] | Ratio (START to CDS) [1] | Normalized ratio START/ORF [1] | normalized ratio START to CDS, MEAN ([1]; Fig. 2g) | normalized ratio START to CDS, MEAN ([1]; Fig. 2h independent repeat)
N=C(N)NCCC[C@H](NC(=O)CNC(=O)[C@H](CCCNC(=N)N)NC(=O)CNC(=O)[C@H](CCCNC(=N)N)NC(=O)CNC(=O)[C@H](CCCNC(=N)N)NC(=O)CNC(=O)[C@H](CCCNC(=N)N)NC(=O)CNC(=O)[C@H](CCCNC(=N)N)NC(=O)CNC(=O)[C@H](CCCNC(=N)N)NC(=O)CNC(=O)[C@H](CCCNC(=N)N)NC(=O)CNC(=O)[C@H](CCCNC(=N)N)NC(=O)CNC(=O)[C@H](CCCNC(=N)N)NC(=O)CNC(=O)[C@H](CCCNC(=N)N)NC(=O)CNC(=O)[C@H](CCCNC(=N)N)NC(=O)CNC(=O)[C@H](CCCNC(=N)N)NC(=O)CNC(=O)[C@H](CCCNC(=N)N)NC(=O)CNC(=O)[C@H](CCCNC(=N)N)NC(=O)CNC(=O)[C@H](CCCNC(=N)N)NC(=O)CNC(=O)[C@H](CCCNC(=N)N)NC(=O)CNC(=O)[C@H](CCCNC(=N)N)NC(=O)CNC(=O)[C@H](CCCNC(=N)N)NC(=O)CNC(=O)[C@H](CCCNC(=N)N)NC(=O)CN)C(=O)O [GR20] | 164 ± 31 nM | accumulate within the open reading frame | 1.504 | 0.5576 | 0.4196 | 0.5964
PRPRPRPRPRPRPRPRPRPRPRPRPRPRPRPRPRPRPRPR [PR20] | 44 ± 9 nM | accumulate at the start codon | 5.983 | 2.218 | 2.067 | 3.436

Reference: paper PMC9120013, “Ribosome inhibition by C9ORF72-ALS/FTD-associated poly-PR and poly-GR proteins revealed by cryo-EM” (Nature Communications, 2022)
